Laboratory results: paper PMC9889419 (Pharmacological Reports, 2022)
Like-named read-outs stand apart in the source and are kept apart here.

What was measured:
mice [1] = conditions: ip; cited from earlier work
Frings mice = conditions: cited from earlier work
mice [2] = conditions: at 40 and 80 mg/kg, ip; cited from earlier work
[3] = system: organotypic hippocampal slice cultures; experiment: Neuroprotection primary screen, excitotoxin kainic acid; assay type: cell-based; conditions: kainic acid 20 µM; 10 and 100 µM compound
Experimental: Compound 2 : ADD t{umber, b890s0 Batch: lB- Date Compteted. Ect\,t""201 0 […]
Excilotoxin: llGinic ncia Insult Duration: l+ Hours Solvent: […]
Ai lxn zopr.,r aZ lxa zopr,r Ae lre zoprta
Bz lr<n zopn er ]ra zopr',t l:+aot a r ooprt/|*aa9o8o l oopM lgaeota t oot,tr,t*gB9o8o t oopM […]
The "Primary screen Experiment" is a qualitative assessment of the ability of a compound to prevent excitotoxic cell dearh. organotypic hippocampal slice clltures are treated with N-methyl-D-aipartate lNuoa; o; kainic acid (KA) to induce neuronal cell death. Propidium iodide (Pl), a membrane-impermeant compound, is included in all welts of the culture plate.
Dying cells have compromised cell membranes, thus Pl may diffuse into the cell, intercalate with DNA and ftuoresce. Thus, the intensity of the Pl fluorescence is proportional to the amount of cell death in the individual slices. Hippocampal slice cultures are treated with the excitotoxin alone, or where indicated above, with the excitotoxin and either one eltu/o investigational compounds at the concentrations indicated. lf neuroprotection occurs as a consequence of the added […]
(§1) been treated with the excitotoxin alone.
(§2) (1 picture or pasted object on this page, not shown here)

rats [4] = conditions: ip
Experimental: (§3) The assays were carried out within the Epilepsy Therapy Screening Program (ETSP, previously known as the Anticonvulsant Screening Program, ASP), Epilepsy Branch, National Institute of Neurological and Communicative Disorders and Stroke, National Institutes of Health in Rockville, MD, USA [23].

[5] = system: organotypic hippocampal slice cultures; experiment: Neuroprotection primary screen, excitotoxin NMDA; assay type: cell-based; conditions: NMDA 10 µM; 10 and 100 µM compound
Source text: Gompound 1 : ADD Number: ItSot+ Batct: lE- Date Started:
Compound 2 : ADD Number: Froso Batct: le Date Completed i l|26-M ar -20 1 O […]
Excitotoxin: lNmoa lnsult Duration: la Uouo Solvent:
Primary Screen Results: ffi […]
Al lruuoa rolrr,| A2lr'rrr,tOa r Olrrr,t * --.- A3 lr'rnroa r oprvr + lsaoot+ t oplrl+aesogo iopM
BZ lr.rrr,ron ropr,t , -_-_-- 83 lluoa topt',r * jffi 1 4 t oopM.€sroso 1 oolrM la+eota tooptu*aasoeo roffi […]
The 'Primary screen Experiment" is a qualitative assessment of the ability of a compound to prevent excrtotoxic cell death. organotypic hippocampal slice cultures are treated *ltn r.i-."iivr-o-"spartate (NMDA) or kainic acad (KA) to induce neuronal cell death' Propidium iodide (Pl), a membrane-imper.eant cornpouna, is included in all wells of the culture plate.
Dying cells have compromised *]lT^"Toj*::, ttr. er rnJy oin "" into the cell, intercatate with DNA and fluoresce. Thus, the intensity of the Pl fluorescence is proportional to the amount of cell death in lhe individual itices. ttippocampat slice cullures are treated with the excitotoxin alone, or *i er. inoi"ui"o above, with the excitotoxin and either one -qf]bar-a Investigalional compounds at the concentrations indicated. lf neuroprotectron occurs as a consequence of the added […]
as §1, §2

mice [6] = experiment: Rotarod test (neurotoxicity); assay type: in vivo; conditions: mice, ip, […];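 note: in vivo neurotoxicity screen run within the NIH Epilepsy Therapy Screening Program (ETSP, formerly Anticonvulsant Screening Program)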
mice [7] = experiment: 6 Hz test; assay type: in vivo; conditions: 32 mA, mice, ip
Experimental: The 6 Hz model test was carried out according to the protocol originally described by Brown et al. [54] and more recently by Barton et al. [55] and Kamiński et al. [47] and is a model of pharmacoresistant epilepsy [56].

rats [8] = experiment: Rotarod / TOX (neurotoxicity); conditions: rats, ip
mice [9] = experiment: iv pentylenetetrazole (PTZ) seizure threshold test; conditions: compound ip
Experimental: They were also evaluated in the iv pentylenetetrazole (PTZ) test.
Data are expressed as the mean PTZ dose ± SEM for n = 10 that induced clonus or twitch in mice exposed to a particular dose of the test compound

mice [10] = experiment: Formalin test (ETSP, area under the curve); assay type: in vivo; conditions: 20.0 mg/kg, ip
mice [11] = experiment: Subcutaneous pentylenetetrazole seizure test (ScPTZ, SCMET); assay type: in vivo; conditions: mice, ip, […]
Experimental: as §3

rats [12] = assay type: in vivo; conditions: ip
mice [13] = conditions: mice, ip, […]
Experimental: as §3
The obtained compounds were screened for antiseizure activity and neurotoxicity in vivo within the Epilepsy Therapy Screening Program (ETSP, previously known as the Anticonvulsant Screening Program, ASP), Epilepsy Branch, National Institute of Neurological and Communicative Disorders and Stroke, National Institutes of Health in Rockville, MD, USA [23].

rats [14] = experiment: Acute toxicity (ETSP screening); assay type: in vivo; conditions: ip, 0.5 h
rats [15] = assay type: in vivo; conditions: ip; remark: listed apart in the source
rats [16] = experiment: Maximal electroshock seizure (MES) test; assay type: in vivo

NC(=O)N1c2ccccc2C=Cc2ccccc21 [Carbamazepine]
MES ED50 (mice [1]): 7.81 (6.32–8.45) mg/kg | Frings mice sound-induced seizures ED50 (Frings mice): 11.2 (7.73–16.2) mg/kg | 6 Hz: Max. protection (mice [2]): 75%

CC[C@H](CO)NCCOc1c(C)cccc1Cl [Compound 5, R-(-)-2-((2-(2-chloro-6-methylphenoxy)ethyl)amino)butan-1-ol]
Test Result (neuroprotection) [3]: No Neuroprotection | LTG-resistant amygdala seizures: rats with toxicity (rats [4]; 30 mg/kg): 3/4 | LTG-resistant amygdala seizures: seizure score by Racine (0–5) (rats [4]; 30 mg/kg): 3.5 | LTG-resistant amygdala seizures: rats with toxicity (rats [4]; 50 mg/kg): 5/5 | LTG-resistant amygdala seizures: seizure score by Racine (0–5) (rats [4]; 50 mg/kg): 2.2 | Test Result (neuroprotection) [5]: No Neuroprotection | Rotarod TD50 (mice [6]): 59.80 (43.80–74.20) mg/kg | 6 Hz ED50 (mice [7]; […]): 33.1 (29–37.8) mg/kg | 6 Hz TPE (mice [7]): 0.25 h | Rotarod TPE (rats [8]): 0.25 h | Rotarod TD50 (rats [8]; […]): > 30 mg/kg | influence on seizure threshold (mice [9]): effect was not shown | Area under the curve (I phase) (mice [10]): 155.1 ± 44.2 | Area under the curve (II phase) (mice [10]): 496.7 ± 164.7 | Area under the curve, % of control (I phase) (mice [10]): 78.7; t14 = 1.3050% | Area under the curve, % of control (II phase) (mice [10]): 105.6; t14 = 0.3579% | Area under the curve (II phase) (mice [10]; listed as 354009): 496.7 | Area under the curve, % of control (I phase) (mice [10]; listed as 354009): 78.68% | Area under the curve, % of control (II phase) (mice [10]; listed as 354009): 105.6% | SCMET ED50 (mice [11]): > 70 mg/kg | Pilocarpine-induced status epilepticus prevention: active at (rats [12]): 50 mg/kg | Prot./Tested (rats [12]; 25 mg/kg, 0 h post first Stage III seizure): 2/8 | Pilocarpine test: rats died (rats [12]; at 100 mg/kg, […]): 2/2 | MES ED50 (mice [13]): 18.20 (16.60–20.00) mg/kg | Acute toxicity: minimal motor impairment at (rats [14]): 50 mg/kg | Hippocampal kindling TPE (rats [15]): 0.75 h | Hippocampal kindling seizure score by Racine (0–5), Rat1 (rats [15]; at 30 mg/kg): 4 | Hippocampal kindling seizure score by Racine (0–5), Rat2 (rats [15]; at 30 mg/kg): 0 | MES PI (rats [16]; ip): > 9.12 | MES TPE (rats [16]; ip): 0.25 h | MES ED50 (rats [16]; ip, […]): 4.65 (2.94–6.88) mg/kg | MES TPE (rats [16]; po): 0.5 h
